Assay results from US20240417369A1, “RXFP1 AGONISTS” (BRISTOL-MYERS SQUIBB COMPANY, priority 2021, published 2024).

Assays:
human RXFP1 = target: T1, human RXFP1 (Homo sapiens, UniProt Q9HBX9); assay: cAMP hRXFP1 HEK293 Assay; type: cell-based; settings: HEK293 cells stably expressing human RXFP1; 30 min at room temperature; HTRF cAMP
T1 construct: expressed in transfected cells
T1 sequence (Q9HBX9 1-757): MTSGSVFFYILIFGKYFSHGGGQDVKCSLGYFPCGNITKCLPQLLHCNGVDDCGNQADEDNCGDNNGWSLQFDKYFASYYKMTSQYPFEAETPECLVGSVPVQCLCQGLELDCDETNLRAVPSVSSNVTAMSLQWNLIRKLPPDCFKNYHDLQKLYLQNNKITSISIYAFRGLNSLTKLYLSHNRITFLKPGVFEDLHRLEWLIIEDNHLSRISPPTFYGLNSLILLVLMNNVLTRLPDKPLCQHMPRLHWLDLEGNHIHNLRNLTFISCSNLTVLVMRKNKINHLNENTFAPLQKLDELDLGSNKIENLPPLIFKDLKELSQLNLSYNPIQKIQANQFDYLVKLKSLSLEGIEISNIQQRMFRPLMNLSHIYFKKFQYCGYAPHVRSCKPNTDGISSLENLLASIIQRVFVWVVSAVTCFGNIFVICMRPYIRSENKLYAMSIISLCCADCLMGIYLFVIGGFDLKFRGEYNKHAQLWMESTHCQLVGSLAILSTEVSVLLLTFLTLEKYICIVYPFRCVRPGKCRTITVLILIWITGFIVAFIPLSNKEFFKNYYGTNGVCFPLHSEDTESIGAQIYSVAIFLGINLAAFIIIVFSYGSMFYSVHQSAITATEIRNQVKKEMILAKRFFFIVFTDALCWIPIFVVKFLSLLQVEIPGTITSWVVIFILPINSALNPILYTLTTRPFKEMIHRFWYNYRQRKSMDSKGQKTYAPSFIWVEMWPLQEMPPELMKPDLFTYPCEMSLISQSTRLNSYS
Description: RXFP1 Cyclic Adenosine Monophosphate (cAMP) Assays. Human embryonic kidney cells 293 (HEK293) cells and HEK293 cells stably expressing human RXFP1, were cultured in MEM medium supplemented with 10% qualified FBS, and 300 μg/ml hygromycin (Life Technologies). Cells were dissociated and suspended in assay buffer. The assay buffer was HBSS buffer (with calcium and magnesium) containing 20 mM HEPES. 0.05% BSA, and 0.5 mM IBMX. Cells (3000 cells per well, except 1500 cell per well for HEK293 cells stably expressing human RXFP1) were added to 384-well Proxiplates (Perkin-Elmer). Cells were immediately treated with test compounds in DMSO (2% final) at final concentrations in the range of 0.010 nM to 50 μM. Cells were incubated for 30 min at room temperature. The level of intracellular cAMP was determined using the HTRF HiRange cAMP assay reagent kit (Cisbio) according to manufacturer's instructions. Solutions of cryptate conjugated anti-cAMP and d2 fluorophore-labelled cAMP were made in a supplied lysis buffer separately. Upon completion of the reaction, the cells were lysed with equal volume of the d2-cAMP solution and anti-cAMP solution. After a 1 h room temperature incubation, time-resolved fluorescence intensity was measured using the Envision (Perkin-Elmer) at 400 nm excitation and dual emission at 590 nm and 665 nm. A calibration curve was constructed with an external cAMP standard at concentrations ranging from 2.7 μM to 0.1 μM by plotting the fluorescent intensity ratio from 665 nm emission to the intensity from the 590 nm emission against cAMP concentrations. The potency and activity of a compound to inhibit cAMP production was then determined by fitting to a 4-parametric logistic equation from a plot of cAMP level versus compound concentrations.
The examples disclosed below were tested in the human RXFP1 (hRXFP1) HEK293 cAMP assay described above and found to have agonist activity. Table I lists EC50 values in the hRXFP1 HEK293 cAMP assay measured for the examples.

[1] = intravenous (IV) formulation; cited from earlier work

Row | Compound | EC50 (human RXFP1) [µM] | first-phase pharmacokinetic half-life [1] [min]
1 | O=C(O)c1cccc(C2CCC(C(=O)N[C@H]3[C@@H](C(=O)Nc4ccc(F)c(C(F)(F)F)c4)[C@H]4CC[C@@H]3/C4=C\C(F)(F)F)C2)c1 (single isomer, unassigned) [Example 9] | 0.51 | 
2 | CO[C@H](C(=O)N[C@H]1[C@@H](C(=O)Nc2ccc(F)c(C(F)(F)F)c2)[C@H]2CC[C@@H]1/C2=C\C(F)(F)F)c1ccccc1 [Example 6, (1R,2S,3R,4R,Z)-N-(4-fluoro-3-(trifluoromethyl)phenyl)-3-((S)-2-methoxy-2-phenylacetamido)-7-(2,2,2-trifluoroethylidene)bicyclo [2.2.1]heptane-2-carboxamide] | 3.3 | 
3 | O=C(O)c1cccc(C2CCCC(C(=O)N[C@H]3[C@@H](C(=O)Nc4ccc(F)c(C(F)(F)F)c4)[C@H]4CC[C@@H]3/C4=C\C(F)(F)F)C2)c1 (single isomer, unassigned) [Example 1] | 0.93 | 
4 | O=C(N[C@H]1[C@@H](C(=O)Nc2ccc(F)c(C(F)(F)F)c2)[C@H]2CC[C@@H]1/C2=C\C1CC1)C1CCC[C@@H](C2=NOC3COCC23)C1 (stereo partly drawn) [Example 16, (1R,2S,3R,4R,7Z)-3-[(3R)-3-{3aH,4H,6H,6aH-furo[3,4-d][1,2]oxazol-3-yl}cyclohexaneamido]-7-(cyclopropylmethylidene)-N-[4-fluoro-3-(trifluoromethyl)phenyl]bicyclo [2.2.1]heptane-2-carboxamide] | 1 | 
5 | O=C(NC1C2CCC(/C2=C/C2CC2)[C@@H]1C(=O)Nc1ccc(F)c(C(F)(F)F)c1)C1CCC[C@H](C2=NOC3COCC23)C1 (single isomer, unassigned) [Example 12] | 0.35 | 
6 | O=C(N[C@H]1[C@@H](C(=O)Nc2ccc(F)c(C(F)(F)F)c2)[C@H]2CC[C@@H]1/C2=C\C1CC1)C1CCC[C@@H](C2=NOC3COCC23)C1 (single isomer, unassigned) [Example 19] | 2 | 
7 | O=C(N[C@H]1[C@@H](C(=O)Nc2ccc(F)c(C(F)(F)F)c2)[C@H]2CC[C@@H]1/C2=C\C(F)(F)F)C(O)c1cccc(Oc2ccccc2)c1 (stereo partly drawn) [Example 7, (1R,2S,3R,4R,Z)-N-(4-fluoro-3-(trifluoromethyl)phenyl)-3-(2-hydroxy-2-(3-phenoxyphenyl)acetamido)-7-(2,2,2-trifluoroethylidene)bicyclo [2.2.1]heptane-2-carboxamide] | 3.4 | 
8 | O=C(N[C@@H]1C2CCC(/C2=C/C2CC2)[C@@H]1C(=O)Nc1ccc(F)c(C(F)(F)F)c1)C1CCC[C@H](C2=NOC3COCC23)C1 (single isomer, unassigned) [Example 13] | 2.9 | 
9 | O=C(N[C@H]1[C@@H](C(=O)Nc2ccc(F)c(C(F)(F)F)c2)[C@H]2CC[C@@H]1/C2=C\C1CC1)C1CCC[C@@H](C2=NOC3COCC23)C1 (single isomer, unassigned) [Example 18] | 1 | 
10 | O=C(CCCCCCCO)N[C@@H]1C2CCC(/C2=C/C2CC2)C1C(=O)Nc1ccc(F)c(C(F)(F)F)c1 (stereo in doubt) [Example 5, (1R,2R,3R,4R,Z)-7-(cyclopropylmethylene)-N-(4-fluoro-3-(trifluoromethyl)phenyl)-3-(8-hydroxyoctanamido)bicyclo [2.2.1]heptane-2-carboxamide] | 1.2 | 
11 | O=C(O)c1cccc(C2CCCC(C(=O)N[C@H]3[C@@H](C(=O)Nc4ccc(F)c(C(F)(F)F)c4)[C@H]4CC[C@@H]3/C4=C\C(F)(F)F)C2)c1 (single isomer, unassigned) [Example 2] | 0.3 | 
12 | COc1ccc(Cl)cc1NC(=O)N[C@H]1[C@@H](C(=O)Nc2ccc(F)c(C(F)(F)F)c2)[C@H]2CC[C@@H]1/C2=C\C(F)(F)F [Example 4, (1R,2S,3R,4R,Z)-3-(3-(5-chloro-2-methoxyphenyl)ureido)-N-(4-fluoro-3-(trifluoromethyl)phenyl)-7-(2,2,2-trifluoroethylidene)bicyclo[2.2.1]heptane-2-carboxamide] | 3.8 | 
13 | O=C(O)CCCCCCC(=O)N[C@H]1[C@@H](C(=O)Nc2ccc(F)c(C(F)(F)F)c2)[C@H]2CC[C@@H]1/C2=C\C1CC1 [Example 8, 8-(((1R,2R,3S,4R,Z)-7-(cyclopropylmethylene)-3-((4-fluoro-3-(trifluoromethyl)phenyl)carbamoyl)bicyclo[2.2.1]heptan-2-yl)amino)-8-oxooctanoic acid] | 4.7 | 
14 | O=C(O)c1cccc(C2CCC(C(=O)N[C@H]3[C@@H](C(=O)Nc4ccc(F)c(C(F)(F)F)c4)[C@H]4CC[C@@H]3/C4=C\C(F)(F)F)CC2)c1 (some centres unmarked) [Example 11] | 4.3 | 
15 | O=C(O)c1cccc(C2CCC(C(=O)NC3C4CCC(C4=CC(F)(F)F)C3C(=O)Nc3ccc(F)c(C(F)(F)F)c3)C2)c1 (single isomer, unassigned) [Example 10] | 2 | 
16 | Serelaxin |  | 5.4
17 | O=C(O)c1cccc(C2CCCC(C(=O)N[C@H]3[C@@H](C(=O)Nc4ccc(F)c(C(F)(F)F)c4)[C@H]4CC[C@@H]3/C4=C\C(F)(F)F)C2)c1 (single isomer, unassigned) [Example 3] | 0.51 | 
18 | O=C(N[C@@H]1C2CCC(/C2=C/C2CC2)[C@@H]1C(=O)Nc1ccc(F)c(C(F)(F)F)c1)C1CCC[C@H](C2=NOC3COCC23)C1 (single isomer, unassigned) [Example 14] | 1.6 | 
19 | O=C(N[C@@H]1C2CCC(/C2=C/C2CC2)[C@@H]1C(=O)Nc1ccc(F)c(C(F)(F)F)c1)C1CCC[C@H](C2=NOC3COCC23)C1 (single isomer, unassigned) [Example 15] | 1.4 | 
20 | O=C(N[C@H]1[C@@H](C(=O)Nc2ccc(F)c(C(F)(F)F)c2)[C@H]2CC[C@@H]1/C2=C\C1CC1)C1CCC[C@@H](C2=NOC3COCC23)C1 (single isomer, unassigned) [Example 17] | 1.6 | 
